Structures are written as SMILES.

In one assay the target is Alpha glucosidase (Homo sapiens, UniProt O43451+P10253+P14410+Q2M2H8). Description: Inhibition of alpha-glucosidase (unknown origin) using p-nitrophenyl-glycoside as substrate preincubated for 10 mins followed by substrate addition by microplate reader analysis. It is filed as protein assay.
For orientation: IC50 means the point on the concentration scale where inhibition reaches its midpoint. A lower IC50 goes with higher potency. `CC(C)=CCC[C@H](CO)[C@@H]1CC[C@@H](CO)c2c(O)cc(C)cc21`: the IC50 worked out at 28.4 µM.

Molecule `CC(C)=CCC[C@H](C)[C@@H]1CC[C@@H](CO)c2c(O)cc(C)cc21` displayed an IC50 of 64.2 µM.

The target of a further assay is T1, Tyrosine-protein phosphatase non-receptor type 1 (Homo sapiens, UniProt P18031).
T1 sequence (P18031 whole entry): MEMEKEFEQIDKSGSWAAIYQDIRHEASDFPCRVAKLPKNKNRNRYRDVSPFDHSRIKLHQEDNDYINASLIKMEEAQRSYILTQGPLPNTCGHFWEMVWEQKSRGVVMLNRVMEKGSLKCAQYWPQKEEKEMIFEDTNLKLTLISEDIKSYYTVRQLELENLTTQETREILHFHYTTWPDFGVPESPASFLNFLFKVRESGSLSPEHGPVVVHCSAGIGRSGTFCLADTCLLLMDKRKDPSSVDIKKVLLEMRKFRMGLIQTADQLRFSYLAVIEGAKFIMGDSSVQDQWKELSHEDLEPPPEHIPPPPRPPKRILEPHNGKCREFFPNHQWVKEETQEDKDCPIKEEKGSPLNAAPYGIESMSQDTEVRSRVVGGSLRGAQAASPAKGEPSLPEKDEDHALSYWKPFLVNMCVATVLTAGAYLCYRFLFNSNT
The assay is described as follows: Inhibition of PTP1B (unknown origin) using pNPP as substrate preincubated for 10 mins followed by substrate addition and measured every 30 sec for 10 mins by microplate photometer analysis.
In turn, `CCCCCCCCCCCCCCCC(=O)C1=C(O)C(CO)OC1=O` (configuration not stated) had an IC50 of 14.4 µM.

Molecule `CC(C)=CCC[C@H](C)c1cccc2c(O)cc(C)cc12` yielded an IC50 of 16.6 µM.

In turn, `CC(C)=CCC[C@H](C)[C@@H]1C[C@H](O)[C@@H](C)c2c(O)cc(C)cc21` returned an IC50 of 80 µM.

Take `CC(C)=CCC[C@H](C)[C@H]1c2cc(C)cc(O)c2[C@H](C)C[C@H]1O`: the midpoint of inhibition, the IC50, lay at 105 µM.

Consider `CC(C)=CCC[C@H](C)[C@@H]1CC[C@@H](CO)c2c(O)cc(C)cc21`, for which the IC50 was determined as 20 µM.

The values above are taken from ChEMBL document CHEMBL5257046, “Characterization of Serrulatane Diterpenoids in Eremophila phyllopoda subsp. phyllopoda by Triple High-Resolution α-Glucosidase/PTP1B/Radical Scavenging Profiling, NMR Spectroscopy, DFT-GIAO NMR, and Electronic Circular Dichroism Calculations” (J Nat Prod, 2023).
